# Experimental data reported in article PMC6746272, “Towards discovery of novel scaffold with potent antiangiogenic activity; design, synthesis of pyridazine based compounds, impact of hinge interaction, and accessibility of their bioactive conformation on VEGFR-2 activities” (Journal of Enzyme Inhibition and Medicinal Chemistry, 2019).
# Like-named read-outs stand apart in the source and are kept apart here.
# Legend:
# HUVEC cell line = assay: In vitro HUVEC anti-proliferative assay (alamar Blue); format: cell-based, human; conditions: for HUVEC proliferation (%): 72 h, Mean ± SD, n = 3
# Procedure: Compounds 8c, 8f, 15, 18b, and 18c were selected to be tested for their ability to in vitro inhibit VEGF-induced HUVEC cell line proliferation, using doxorubicin as a control.
# The assay was performed at single dose concentration of 10 µM, where HUVEC, human (Life Technologies # C-003-5C) served as the cells’ source, in Medium 200 (Life Technologies # M-200–500), with large vessel endothelial supplement (LVES) (Life Technologies # A14608-01) and Pen-strep (Hyclone # SV30010). Alamar Blue (Life Technologies # DAL1025) was used as the fluorescent reagent.
# HUVEC cells were cultured in Medium 200 with 2% LVES and 1% Pen-strep. To perform the proliferation assay, HUVEC cells were seeded at 5000 cells/50 μl/well in a 96-well black clear bottom tissue culture plate. Cells were incubated at 37 °C and 5% CO2 overnight to allow them to recover and reattach. Next day cells were treated with test compounds for 72 h. After treatment, cell proliferation was measured by Fluorescent quantitation of alamar Blue reagent. The alamar Blue assay incorporates a fluorometric/colorimetric growth indicator based on detection of metabolic activity. Specifically, resazurin, the active ingredient in the alamar Blue reagent, is blue in colour and virtually non-fluorescent. Upon entering cells, resazurin is reduced to resorufin, a compound that is red in colour and highly fluorescent. Continued cell growth maintains a reduced environment, therefore increasing the overall fluorescence and colour of the media surrounding cells. […] To perform the alamar Blue assay, […] of alamar Blue reagent was added to each well and the plate was incubated at 37 °C for an additional 2 h. Fluorescence intensity was measured at an excitation of 530 nm and an emission of 590 nm using a BioTek SynergyTM 2 microplate reader.
# Cell proliferation assays were performed in triplicate at each concentration. The fluorescent intensity data were analysed using the computer software, Graphpad Prism. In the absence of the compound, the fluorescent intensity (Ft) in each data set was defined as 100%. In the absence of cells, the fluorescent intensity (Fb) in each data set was defined as 0%. The percent cell in the presence of each compound was calculated according to the following equation: % Cell = (F – Fb)/(Ft – Fb), where F = the fluorescent intensity in the presence of the compound, Fb = the fluorescent intensity in the absence of cells, and Ft = the fluorescent intensity in the absence of the compound.
# VEGFR-2 = biological target: T1, VEGFR-2 (Homo sapiens, UniProt P35968); assay: VEGFR-2 kinase inhibition assay (Alpha Screen, phosphotyrosine antibody); format: biochemical; conditions: for inhibition at 10 µM: read-out: VEGFR-2% inhibition
# T1 construct: purchased Millipore, United Kingdom
# Procedure: The kinase activity of VEGFR-2 was measured by use of a phosphotyrosine antibody with the
# Alpha Screen system (PerkinElmer, United States) according to manufacturer’s instructions. Enzyme reactions were performed in 50 mM Tris–HCl pH 7.5, 5 mM MnCl2, 5 mM MgCl2, 0.01% Tween-20 and 2 mM DTT, containing 10 μM ATP, 0.1 μg/mL biotinylated poly-GluTyr (4:1), and 0.1 nM of VEGFR-2 (Millipore, United Kingdom). Prior to catalytic initiation with ATP, the tested compounds at final concentrations ranging from 0 to 100 μg/mL and enzyme were incubated for 5 min at room temperature. […] Plate was incubated in the dark overnight and then read by ELISA Reader (PerkinElmer, United States). Wells containing the substrate and the enzyme without compounds were used as reaction control. Wells containing biotinylated poly-GluTyr (4:1) and enzyme without ATP were used as basal control. Percent inhibition was calculated by the comparison of compounds treated to control incubations.
# NCI 56 cell line panel = assay: NCI primary anticancer assay, mean over panel (SRB); format: cell-based, human; conditions: 10–5 M
# Procedure: The selected compounds were evaluated at primary anticancer assay against a panel of 56 cancer lines at concentration 10–5 M. The human tumour cell lines were derived from nine different cancer types: leukaemia, melanoma, lung, colon, CNS, ovarian, renal, prostate, and breast cancers.
# A 48 h drug exposure protocol was used and sulforhodamine B (SRB) protein assay was applied to estimate the cell viability and growth. The mean percentages GI (GI%) of the tested compounds over the full panel of cell lines are illustrated in Figure 4.
# The cytotoxicity assays were performed at NCI, Bethesda, United States (against 56 cell lines). […]
# Experimental drugs were solubilised in dimethyl sulfoxide at 400-fold the desired final maximum test concentration and stored frozen prior to use. […] Bound stain was subsequently solubilised with 10 mM trizma base, and the absorbance was read on an automated plate reader at a wavelength of 515 nm. […] Using the seven absorbance measurements [time zero (Tz), control growth (C), and test growth in the presence of drug at the five concentration levels (Ti)], the percentage growth was calculated at each of the drug concentration levels. Percentage GI was calculated as: [(Ti – Tz)/(C – Tz)] × 100 for concentrations for which Ti ≥ Tz [(Ti – Tz)/Tz] × 100 for concentrations for which Ti < Tz.
# VEGFR3 = test system: VEGFR3; design: method as in PMID 23123015, PMID 23305239; conditions: read-out: inhibits VEGFR3; cited from earlier work
# PDGFRβ = test system: PDGFRβ; design: method as in PMID 23123015, PMID 23305239; conditions: read-out: inhibits PDGFRβ; cited from earlier work
# VEGFR1 = test system: VEGFR1; design: method as in PMID 23123015, PMID 23305239; conditions: read-out: inhibits VEGFR1; cited from earlier work
# PDGFRα = test system: PDGFRα; design: method as in PMID 23123015, PMID 23305239; conditions: read-out: inhibits PDGFRα; cited from earlier work
# VEGFR2 = test system: VEGFR2; design: method as in PMID 23123015, PMID 23305239; conditions: read-out: inhibits VEGFR2; cited from earlier work
# [1] = 5 concentrations 1 nM - 10 µM, Mean ± SD, n = 3, read-out: VEGFR-2 IC50
# [2] = single concentration of 10 µM, Mean ± SD, n = 3
# T1 sequence (P35968 20-1356): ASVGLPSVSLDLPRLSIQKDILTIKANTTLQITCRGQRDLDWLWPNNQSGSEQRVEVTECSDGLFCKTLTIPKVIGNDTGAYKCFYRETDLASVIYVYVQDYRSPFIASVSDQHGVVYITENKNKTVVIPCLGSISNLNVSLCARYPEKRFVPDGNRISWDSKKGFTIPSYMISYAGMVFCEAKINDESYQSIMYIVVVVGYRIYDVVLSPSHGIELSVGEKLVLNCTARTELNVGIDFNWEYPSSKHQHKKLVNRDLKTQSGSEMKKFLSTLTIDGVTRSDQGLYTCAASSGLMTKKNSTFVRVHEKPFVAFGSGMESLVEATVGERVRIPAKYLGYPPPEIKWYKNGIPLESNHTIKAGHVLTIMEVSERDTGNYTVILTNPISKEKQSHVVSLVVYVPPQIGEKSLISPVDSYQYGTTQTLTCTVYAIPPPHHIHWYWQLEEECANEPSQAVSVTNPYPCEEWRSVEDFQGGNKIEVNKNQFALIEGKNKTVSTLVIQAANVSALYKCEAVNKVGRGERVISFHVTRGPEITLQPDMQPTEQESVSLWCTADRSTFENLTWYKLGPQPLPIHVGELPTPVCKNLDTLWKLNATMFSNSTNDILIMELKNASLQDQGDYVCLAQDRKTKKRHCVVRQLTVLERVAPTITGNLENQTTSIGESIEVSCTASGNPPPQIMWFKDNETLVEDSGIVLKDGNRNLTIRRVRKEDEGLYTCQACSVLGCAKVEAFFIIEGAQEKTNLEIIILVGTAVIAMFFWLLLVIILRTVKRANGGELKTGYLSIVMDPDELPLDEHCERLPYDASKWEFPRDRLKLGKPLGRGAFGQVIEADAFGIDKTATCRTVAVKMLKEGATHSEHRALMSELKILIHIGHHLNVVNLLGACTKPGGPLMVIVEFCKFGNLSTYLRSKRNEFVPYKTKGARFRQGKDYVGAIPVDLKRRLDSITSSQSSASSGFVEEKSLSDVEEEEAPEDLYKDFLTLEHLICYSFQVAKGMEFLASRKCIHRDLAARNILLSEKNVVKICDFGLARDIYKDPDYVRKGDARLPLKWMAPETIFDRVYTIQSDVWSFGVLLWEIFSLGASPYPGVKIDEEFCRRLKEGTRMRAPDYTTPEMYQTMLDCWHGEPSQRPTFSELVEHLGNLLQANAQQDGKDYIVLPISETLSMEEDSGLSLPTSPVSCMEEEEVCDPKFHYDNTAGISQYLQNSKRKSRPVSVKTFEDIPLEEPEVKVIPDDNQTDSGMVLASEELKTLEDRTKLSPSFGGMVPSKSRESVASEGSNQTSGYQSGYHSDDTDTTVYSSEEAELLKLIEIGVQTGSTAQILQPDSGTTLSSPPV
molecule,measurement,setting,value
O=C(Nc1ccc(-c2ccc(=O)[nH]n2)cc1)Nc1ccc(Cl)c(C(F)(F)F)c1 [Compound 8c],HUVEC proliferation (%),HUVEC cell line; 10 µM,14.75 ± 0.059%
same,IC50,VEGFR-2; [1],1.3 ± 0.14 µM
"O=C(Nc1ccc(Oc2ccc(=O)[nH]n2)cc1)Nc1ccc(Cl)c(C(F)(F)F)c1 [Compound 18b, 1–(4-Chloro-3-(trifluoromethyl)phenyl)-3–(4-((6-oxo-1,6-dihydropyridazin-3-yl)oxy)phenyl)urea]",inhibitory activity against most of the test cell lines (in words),NCI 56 cell line panel,weak inhibitory activity
same,anti-proliferative activity against HUVEC (in words),HUVEC cell line; 10 μM,potent anti-proliferative activity
same,HUVEC proliferation (%),HUVEC cell line; 10 µM,2.13 ± 0.425%
same,IC50,VEGFR-2; [1],0.0607 ± 3e-05 µM
"1-[3-Methoxyphenyl)-3–(6-morpholino-[1, 2, 4]triazolo[4,3-b]pyridazin-3-yl]urea [Compound 5c]",VEGFR-2% inhibition,VEGFR-2; [2],13.10 ± 1.71%
"1-[4-Chloro-3-(trifluoromethyl)phenyl)-3–(3-(6-oxo-1,6-dihydropyridazin-3-yl)phenyl]urea [Compound 8e]",VEGFR-2% inhibition,VEGFR-2; [2],27.03 ± 3.29%
Cc1cc(C(=O)Nc2cc(Oc3ccc4nc(NC(=O)C5CC5)cn4n3)ccc2C)n(C)n1 [TAK-593],IC50,VEGFR3,0.0011 µM
same,IC50,PDGFRβ,0.013 µM
same,IC50,VEGFR1,0.0032 µM
same,IC50,PDGFRα,0.0043 µM
same,IC50,VEGFR2,0.00095 µM
"1-[4-((6-Chloropyridazin-3-yl)amino)phenyl)-3–(3,4-dichlorophenyl]urea [Compound 11d]",VEGFR-2% inhibition,VEGFR-2; [2],11.93 ± 2.25%
O=C(Nc1ccc(Cl)c(Cl)c1)Nc1nnc2ccc(Cl)nn12 [Compound 3],melting point,,173 to 175 °C
same,inhibition at 10 µM,VEGFR-2; [2],3.06 ± 0.45%
"CN[C@@H]1C[C@H]2O[C@@](C)([C@@H]1OC)n1c3ccccc3c3c4c(c5c6ccccc6n2c5c31)C(=O)NC4 [Strausporine, staurosporine, reference compound]",inhibition at 10 µM,VEGFR-2,90.5 ± 4.53%
"1-[3,4-Dichlorophenyl)-3–(6-morpholino-[1, 2, 4]triazolo[4,3-b]pyridazin-3-yl]urea [Compound 5a]",VEGFR-2% inhibition,VEGFR-2; [2],5.07 ± 0.61%
"1-[4-Chloro-3-(trifluoromethyl)phenyl)-3–(6-morpholino-[1, 2, 4]triazolo[4,3-b]pyridazin-3-yl]urea [Compound 5b]",VEGFR-2% inhibition,VEGFR-2; [2],7.07 ± 1.11%
"COc1ccc(Nc2ccc(NC(=O)Nc3ccc(Cl)c(C(F)(F)F)c3)cc2)nn1 [Compound 15, 1–(4-Chloro-3-(trifluoromethyl)phenyl)-3–(4-((6-methoxypyridazin-3-yl)amino)phenyl) urea]",HUVEC proliferation (%),HUVEC cell line; 10 µM,64.50 ± 2.017%
same,inhibition at 10 µM,"HUVEC cell line; Homo sapiens, HUVEC, 10 µM, read-out: growth inhibition (GI) percent against HUVEC cell line",35.5%
same,IC50,VEGFR-2; [1],1.4 ± 0.12 µM
same,IC50,"VEGFR-2; unit given as nm, read-out: VEGFR-2 IC50 (nm)",1.41 µM
